Source: patent US10653779B2, “Formulations with reduced oxidation” (Genentech, Inc., priority 2013, dated 2020)
Entries after “also recorded” stand apart in the source; their conditions may differ.

How the values were obtained:
[1] = Photosensitivity screening: H2O2 formation by antioxidant candidates upon light exposure (Amplex Ultra Red Assay); type: physicochemical
Method: As a screening tool, antioxidant candidates were exposed to light for four hours at 250 W/m^2 and the resulting H2O2 formation was quantified by the Amplexassay. Specifically, antioxidants were prepared to 1 mM in 20 mM histidine acetate buffer at pH 5.5. The 1 mM antioxidant solutions were aliquoted into glass vials (2 mL/glass vial) and exposed to four hours of light at 250 W/m^2 in an Atlas SunTest CPS+ Xenon Test Instrument (Chicago, Ill.). Total UV dose was 90 watt-hours/square meter and total visible dose was 0.22 million lux hours over the 4-hour period. Control vials were wrapped in aluminum foil and treated similarly. The amount of hydrogen peroxide generated after exposure to light was measured using the Amplex® Ultra Red Assay (Invitrogen, Carlsbad, Calif.) following the manufacturer's recommended procedure. On addition of horseradish peroxidase (HRP), the dye reacted 1:1 stoichiometrically with H2O2, resulting in the production of fluorescent oxidation product resorufin. In this study, fluorescence readings were obtained using a Spectra Max M2 Micro-plate Reader (Molecular Devices, Sunnyvale, Calif.) with excitation and emission set at 560 nm and 590 nm, respectively. Final H2O2 concentrations were determined using a standard curve ranging from 0 μm to 20 μm. […]

[2] = Cyclic voltammetry (CV) screening of oxidation potentials; type: physicochemical; conditions: for Oxidation Potential (anodic peak): glassy carbon working electrode, 0.2 M lithium perchlorate
Method: The oxidation/reduction characteristics of the compounds were investigated. Several compounds, including L-Trp and derivatives, were evaluated for the protection of Trp oxidation in proteins using cyclic voltammetry (CV) and rank ordered based on their oxidation potentials (Table 2). Specifically, the candidate antioxidants were dissolved in deionized water and then added to a 0.2 M lithium perchlorate electrolyte solution. […] Solutions were scanned from −0.10 V to +1.50 V at a scan rate of either 100 or 500 mV/sec. The analytical cell was purged for four minutes with nitrogen before scanning of each antioxidant solution. The input was a linear scan of the potential of a working electrode, and the output was measurement of the resulting current. […] Redox reactions were characterized by sharp increases or decreases in current (peaks). The potential at which an oxidation reaction occurred was referred to as the anodic peak potential (or oxidation potential), and the potential at which a reduction occurred was referred to as is the cathodic peak (or reduction) potential.

mAb1 [3] = experiment: mAb1 AAPH stress study; Fab/Fc oxidation by RP-HPLC; type: physicochemical, human; conditions: antioxidants at 1 mM; for Fab (Trp residue) oxidation of mAb1 after AAPH incubation: 24 hours at 40° C., label mAb1 = no excipient
From the text: (§1) The fragments were reduced with DTT, and then separated and identified via Liquid Chromatography-Mass Spectrometry (LC-MS). […] Comparison of area integrated under the oxidized and native peaks was used to quantify HC Fab and Fc oxidation. […] By using the papain digest RP-HPLC method in the present study it was possible to investigate Trp residue oxidation by quantifying HC Fab oxidation, and Met residue oxidation by quantifying HC Fc oxidation.
% Fab oxidation and % Fc oxidation were calculated as follows: […]
Antioxidants were added at 1 mM. […] After buffer exchange, each solution was prepared for analysis by reverse-phase HPLC as described above.

mAb1 [4] = experiment: mAb1 light stress study, 16 hours; Fab/Fc oxidation by RP-HPLC; type: physicochemical, human; conditions: for Fab oxidation increase over the control level (mAb1 Ref Mat): label mAb1 = No Excipient
Method: as §1
Antioxidants were added at 1 mM. Glass vials containing these formulations were exposed to 250 W/m^2 light in an Atlas SunTest CPS+ Xenon Test Instrument (Chicago, Ill.). Control vials were wrapped in aluminum foil and treated similarly. After light exposure, solutions were prepared for analysis by reverse-phase HPLC as described above.

mAb1 [5] = experiment: mAb1 light stress, eight hours, with L-Trp and L-Met; Fab/Fc oxidation by papain digest RP-HPLC; type: physicochemical, human; conditions: label mAb1 = No Excipient
Method: L-tryptophan (L-Trp), an antioxidant used in protein formulations, has been recently shown to be photosensitive (Igarashi et al., Anal Sci 23(8):943-8 (2007)) and to have the ability to produce H2O2 upon light exposure. […] Control vials were wrapped in aluminum foil and treated similarly. After light exposure, solutions were prepared for analysis by reverse-phase HPLC. […] Following incubation, 900 μL of the solution was combined with 100 μL of 1 M dithiothreitol (DTT) and incubated for another thirty minutes at 37° C. Samples were then run on an Agilent, Inc. 1100/1200 HPLC system (Santa Clara, Calif.) equipped with UV detection at 280 nm in conjunction with a Varian, Inc. Pursuit 3 μm, 2 mm ID×250 mm diphenyl column (Palo Alto, Calif.). Mobile Phase A was 0.1% TFA in water. Mobile Phase B was 0.1% TFA in acetonitrile. The mobile phase gradient increased linearly from 34% B at 0 minutes to 43% B at 50.0 minutes, then to 95% B at 50.1 minutes. The gradient remained at 95% B until 60.1 minutes, and then decreased linearly from 95% B to 34% B between 60.1 and 60.2 minutes. The gradient remained at 34% B until the end of the cycle at 80.2 minutes. The column temperature was 65° C., total flow rate was 0.2 mL/min, and injection volume of each sample was 6 μL. Chromatograms were then integrated for quantification of oxidation.

mAb1 [6] = experiment: mAb1 Fenton stress study (H2O2 + Fe); Fab/Fc oxidation by RP-HPLC; type: physicochemical, human; conditions: 10 ppm H2O2, 0.2 mM Fe(III), 40° C. for 3 hours, no excipient
Method: Antioxidants were added at a final concentration of 1 mM. […] After incubation, each reaction was quenched by addition of 100 mM L-Met and then prepared for analysis by reverse-phase HPLC as described above.
The Fenton reaction, using a mixture of H2O2 and Fe ions, generates oxidation through a metal catalyzed, hydroxyl radical reaction (Prousek et al., Pure and Applied Chemistry 79(12):2325-2338 (2007)). This reaction generated Fab, i.e. tryptophan, oxidation in mAb1. The reaction was also carried out in the presence of select antioxidants that were useful against both AAPH and light induced oxidation as reported above. Data related to the antioxidant properties against Fenton mediated reaction were analyzed using the RP-HPLC assay as described above. The Fenton reaction used 10 ppm of H2O2 and 0.2 mM of Fe(III). The reaction was incubated at 40° C. for 3 hours, quenched with 100 mM L-Met and analyzed using RP-HPLC after papain digest. All samples were the average of three separate vials, and mAb1 control (Ref Mat) was one vial with five independent injections on the HPLC. […] In regards to protection against Fc oxidation, the tested excipients (other than salicylic acid) performed slightly better than L-Trp.

[7] = 16 hours of light at 250 W/m^2, excipient 1 mM
[8] = 1 mM in 20 mM histidine acetate pH 5.5, four hours of light at 250 W/m^2

Molecule | Oxidation Potential (anodic peak) [2] [V vs Ag/AgCl] | Fab oxidation increase over the control level (mAb1 Ref Mat) (mAb1 [4]; [7]) [fold] | (H2O2 produced by Compound)/(H2O2 produced by L-Trp) [1, 8] | Fab (Trp residue) oxidation of mAb1 after AAPH incubation (mAb1 [3]) | Effect on light-induced Fab oxidation (in words) (mAb1 [4]; [7]) | also measured
O=C(O)c1ccccc1O [Salicylic Acid] | 1.080 | 8 |  |  |  | (H2O2 produced by Compound)/(H2O2 produced by L-Trp) ([1]; pH 5.5): 0.03; H2O2 production upon light exposure compared to L-Trp (in words) ([1]; pH 5.5): very little H2O2; also recorded: did not produce much H2O2; Oxidation potential relative to L-Trp (in words) ([2]; cyclic voltammetry): higher oxidation potential than L-Trp; Effect on AAPH-induced Fab oxidation (in words) (mAb1 [3]; AAPH 24 hours at 40° C.): almost no effect on Fab oxidation; Fc oxidation under light stress compared to no excipient control (in words) (mAb1 [4]; [7]): more Fc oxidation
Oc1ccc2[nH]ccc2c1 [5-Hydroxyindole, 5-Hydroxy Indole] | 0.580 |  | −0.08 | about 2% | reducing Fab oxidation to near control levels | H2O2 production upon light exposure compared to L-Trp (in words) ([1]; 1 mM, 20 mM L-His-acetate pH 5.5, 4 h light, 0.22 million lux hours): low levels of H2O2 production
N[C@@H](Cc1c[nH]c2ccc(O)cc12)C(=O)O [5-Hydroxy-L-Trp, 5-Hydroxy-Tryptophan] | 0.565 |  | 0.09 | about 2% | reducing Fab oxidation to near control levels | H2O2 production upon light exposure compared to L-Trp (in words) ([1]; 1 mM, 20 mM L-His-acetate pH 5.5, 4 h light, 0.22 million lux hours, listed as 5-hydroxy-L-tryptophan): about one tenth of the H2O2; also recorded: low levels of H2O2 production
mAb1: monoclonal anti-DR5 antibody, drozitumab (CAS number 912628-39-8), human monoclonal IgG1 |  | 3.5 |  |  |  | Fab oxidation of mAb1 (mAb1 [5]; 5 mg/mL mAb1, 8 h light at 250 W/m^2, L-Trp at 1 mM): 4%; Effect on Fc oxidation of mAb1 (in words) (mAb1 [5]; 8 h light at 250 W/m^2, L-Met 10, 25, 50, 100 mM added to 1 mM L-Trp): only a minor increase in Fc oxidation; Increase in Fc oxidation over the control level (mAb1 [4]; 16 hours of light at 250 W/m^2, no excipient): 40%; Oxidation in the Fab region of mAb1 over the control (in words) (mAb1 [6]): about four times the oxidation
